Data published in patent publication US11767310B2, “Nicotinamide RIPK1 inhibitors” (AbbVie Inc., priority 2021, dated 2023).
Where two headings read alike, the source gives them in different places.

How the values were obtained:
Experiment in all cases: Kinase binding screen
Conditions in all cases: read-out: Percent Control at 100 nM Compound Concentration
CSK = CSK (Homo sapiens (Human), UniProt P41240)
ERN1 = ERN1 (Homo sapiens (Human), UniProt O75460)
CSF1R-autoinhibited = CSF1R-autoinhibited (Homo sapiens (Human), UniProt P07333)
PIK3CD = PIK3CD (Homo sapiens (Human), UniProt O00329)
SGK3 = SGK3 (Homo sapiens (Human), UniProt Q96BR1)
CSNK1G2 = CSNK1G2 (Homo sapiens (Human), UniProt P78368)
NEK4 = NEK4 (Homo sapiens (Human), UniProt P51957)
ERK3 = ERK3 (Homo sapiens (Human), UniProt Q16659)
BRAF = BRAF (Homo sapiens (Human), UniProt P15056)
CDK7 = CDK7 (Homo sapiens (Human), UniProt P50613)
NEK3 = NEK3 (Homo sapiens (Human), UniProt P51956)
RAF1 = RAF1 (Homo sapiens (Human), UniProt P04049)
CDC2L2 = CDC2L2 (Homo sapiens (Human), UniProt Q9UQ88)
MYLK2 = MYLK2 (Homo sapiens (Human), UniProt Q9H1R3)
DCAMKL1 = DCAMKL1 (Homo sapiens (Human), UniProt O15075)
TBK1 = TBK1 (Homo sapiens (Human), UniProt Q9UHD2)
CAMK2B = CAMK2B (Homo sapiens (Human), UniProt Q13554)
EPHA1 = EPHA1 (Homo sapiens (Human), UniProt P21709)
PRKG2 = PRKG2 (Homo sapiens (Human), UniProt Q13237)
TRKB = TRKB (Homo sapiens (Human), UniProt Q16620)
NEK2 = NEK2 (Homo sapiens (Human), UniProt P51955)
MARK2 = MARK2 (Homo sapiens (Human), UniProt Q7KZI7)
MST2 = MST2 (Homo sapiens (Human), UniProt Q13188)
LCK = LCK (Homo sapiens (Human), UniProt P06239)
MEK5 = MEK5 (Homo sapiens (Human), UniProt Q13163)
PAK6 = PAK6 (Homo sapiens (Human), UniProt Q9NQU5)
MYLK = MYLK (Homo sapiens (Human), UniProt Q15746)
PKAC-alpha = PKAC-alpha (Homo sapiens (Human), UniProt P17612)
PCTK1 = PCTK1 (Homo sapiens (Human), UniProt Q00536)
PLK4 = PLK4 (Homo sapiens (Human), UniProt O00444)

Sequence of CSNK1G2 (P78368 whole entry): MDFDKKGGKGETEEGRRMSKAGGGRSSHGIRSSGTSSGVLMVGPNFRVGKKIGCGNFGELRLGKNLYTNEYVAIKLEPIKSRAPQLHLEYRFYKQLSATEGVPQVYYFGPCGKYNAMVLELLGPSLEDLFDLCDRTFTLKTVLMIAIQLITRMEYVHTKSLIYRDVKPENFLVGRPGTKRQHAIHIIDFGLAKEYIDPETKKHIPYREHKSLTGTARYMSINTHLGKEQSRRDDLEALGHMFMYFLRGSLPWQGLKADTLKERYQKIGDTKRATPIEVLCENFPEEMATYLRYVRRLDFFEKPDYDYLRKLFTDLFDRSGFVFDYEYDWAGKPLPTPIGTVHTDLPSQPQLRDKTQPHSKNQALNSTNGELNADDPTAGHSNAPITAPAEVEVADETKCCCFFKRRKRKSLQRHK
Sequence of PIK3CD (O00329 whole entry): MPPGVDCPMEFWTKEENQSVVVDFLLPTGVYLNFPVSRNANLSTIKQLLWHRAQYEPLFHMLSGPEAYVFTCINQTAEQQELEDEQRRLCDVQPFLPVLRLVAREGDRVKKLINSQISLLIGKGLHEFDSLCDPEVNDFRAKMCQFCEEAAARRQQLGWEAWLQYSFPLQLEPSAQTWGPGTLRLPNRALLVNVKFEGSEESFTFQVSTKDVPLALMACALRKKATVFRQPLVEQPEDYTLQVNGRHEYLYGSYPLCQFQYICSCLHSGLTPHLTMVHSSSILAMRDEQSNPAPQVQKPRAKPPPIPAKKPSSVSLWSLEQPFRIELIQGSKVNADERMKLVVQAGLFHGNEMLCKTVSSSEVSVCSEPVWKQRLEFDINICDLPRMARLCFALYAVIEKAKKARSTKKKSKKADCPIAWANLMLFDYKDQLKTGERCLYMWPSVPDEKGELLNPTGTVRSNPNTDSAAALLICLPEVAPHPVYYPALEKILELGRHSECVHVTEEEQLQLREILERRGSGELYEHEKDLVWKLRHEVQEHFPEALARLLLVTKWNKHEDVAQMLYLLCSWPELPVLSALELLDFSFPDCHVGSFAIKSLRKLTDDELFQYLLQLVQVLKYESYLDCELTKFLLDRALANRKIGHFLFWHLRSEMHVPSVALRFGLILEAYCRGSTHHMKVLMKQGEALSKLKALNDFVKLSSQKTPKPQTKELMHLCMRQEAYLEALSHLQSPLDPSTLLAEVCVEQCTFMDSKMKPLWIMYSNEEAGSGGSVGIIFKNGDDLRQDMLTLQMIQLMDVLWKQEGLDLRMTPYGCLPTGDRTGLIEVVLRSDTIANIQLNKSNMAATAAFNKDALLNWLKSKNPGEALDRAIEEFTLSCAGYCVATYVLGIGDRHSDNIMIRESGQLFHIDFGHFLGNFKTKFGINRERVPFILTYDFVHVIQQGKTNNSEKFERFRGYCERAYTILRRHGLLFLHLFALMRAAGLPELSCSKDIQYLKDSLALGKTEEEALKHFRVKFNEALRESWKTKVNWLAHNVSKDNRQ
Sequence of BRAF (P15056 whole entry): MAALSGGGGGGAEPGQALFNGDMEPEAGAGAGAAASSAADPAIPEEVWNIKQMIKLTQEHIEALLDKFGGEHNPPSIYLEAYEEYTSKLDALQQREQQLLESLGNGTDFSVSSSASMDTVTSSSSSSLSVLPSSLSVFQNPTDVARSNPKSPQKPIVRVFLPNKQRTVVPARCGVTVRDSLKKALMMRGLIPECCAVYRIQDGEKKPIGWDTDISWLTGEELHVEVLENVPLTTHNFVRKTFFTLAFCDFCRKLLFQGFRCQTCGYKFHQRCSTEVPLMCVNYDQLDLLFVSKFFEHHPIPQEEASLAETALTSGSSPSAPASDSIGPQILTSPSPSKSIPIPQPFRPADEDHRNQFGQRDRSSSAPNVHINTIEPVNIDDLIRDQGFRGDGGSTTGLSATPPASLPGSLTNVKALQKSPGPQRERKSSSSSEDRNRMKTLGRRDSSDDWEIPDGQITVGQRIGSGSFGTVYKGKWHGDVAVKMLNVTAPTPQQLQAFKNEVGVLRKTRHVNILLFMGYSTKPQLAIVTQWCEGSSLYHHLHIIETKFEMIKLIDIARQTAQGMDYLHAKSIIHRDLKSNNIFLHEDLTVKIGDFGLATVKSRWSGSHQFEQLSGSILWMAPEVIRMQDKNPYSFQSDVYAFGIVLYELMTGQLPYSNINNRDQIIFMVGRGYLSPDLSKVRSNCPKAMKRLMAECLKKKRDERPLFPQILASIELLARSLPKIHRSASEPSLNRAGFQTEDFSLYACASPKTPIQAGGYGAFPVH
Sequence of PRKG2 (Q13237 whole entry): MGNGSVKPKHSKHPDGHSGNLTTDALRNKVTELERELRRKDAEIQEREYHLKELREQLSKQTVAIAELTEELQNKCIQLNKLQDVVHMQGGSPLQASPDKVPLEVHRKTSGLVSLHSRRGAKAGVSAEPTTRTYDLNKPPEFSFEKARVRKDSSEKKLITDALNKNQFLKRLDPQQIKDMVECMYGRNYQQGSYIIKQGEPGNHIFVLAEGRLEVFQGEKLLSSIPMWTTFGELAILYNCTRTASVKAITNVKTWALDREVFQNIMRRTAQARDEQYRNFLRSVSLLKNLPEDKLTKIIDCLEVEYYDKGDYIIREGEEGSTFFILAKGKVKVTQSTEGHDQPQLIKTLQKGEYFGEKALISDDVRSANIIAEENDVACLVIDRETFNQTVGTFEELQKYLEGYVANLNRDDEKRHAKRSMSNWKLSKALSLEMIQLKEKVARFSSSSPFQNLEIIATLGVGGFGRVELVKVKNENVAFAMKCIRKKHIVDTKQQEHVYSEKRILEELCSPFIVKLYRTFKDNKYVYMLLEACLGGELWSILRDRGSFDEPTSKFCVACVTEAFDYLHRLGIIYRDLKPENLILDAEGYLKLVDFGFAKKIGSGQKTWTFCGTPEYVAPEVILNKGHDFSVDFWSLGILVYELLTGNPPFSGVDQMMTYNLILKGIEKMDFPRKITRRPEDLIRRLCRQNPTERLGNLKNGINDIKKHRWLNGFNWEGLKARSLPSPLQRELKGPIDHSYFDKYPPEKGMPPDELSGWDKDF
Sequence of TBK1 (Q9UHD2 whole entry): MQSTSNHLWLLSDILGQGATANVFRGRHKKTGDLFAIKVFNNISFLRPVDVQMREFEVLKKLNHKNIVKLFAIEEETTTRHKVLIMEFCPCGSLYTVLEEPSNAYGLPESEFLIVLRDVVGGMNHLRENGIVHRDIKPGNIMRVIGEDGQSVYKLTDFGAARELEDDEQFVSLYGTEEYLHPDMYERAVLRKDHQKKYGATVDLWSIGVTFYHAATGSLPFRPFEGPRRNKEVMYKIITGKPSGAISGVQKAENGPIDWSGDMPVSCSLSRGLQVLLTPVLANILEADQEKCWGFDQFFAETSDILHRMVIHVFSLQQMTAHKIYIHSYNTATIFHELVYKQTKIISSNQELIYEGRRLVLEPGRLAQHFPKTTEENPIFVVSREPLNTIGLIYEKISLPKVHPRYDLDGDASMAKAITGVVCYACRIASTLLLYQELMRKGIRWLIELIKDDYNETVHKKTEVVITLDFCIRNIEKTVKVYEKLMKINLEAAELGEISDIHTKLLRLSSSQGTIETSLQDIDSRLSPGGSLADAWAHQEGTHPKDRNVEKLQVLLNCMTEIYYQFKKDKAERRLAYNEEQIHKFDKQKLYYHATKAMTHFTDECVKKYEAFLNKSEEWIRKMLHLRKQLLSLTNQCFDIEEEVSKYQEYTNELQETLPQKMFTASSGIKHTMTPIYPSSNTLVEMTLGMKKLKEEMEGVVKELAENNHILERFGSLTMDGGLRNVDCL
Sequence of NEK4 (P51957 whole entry): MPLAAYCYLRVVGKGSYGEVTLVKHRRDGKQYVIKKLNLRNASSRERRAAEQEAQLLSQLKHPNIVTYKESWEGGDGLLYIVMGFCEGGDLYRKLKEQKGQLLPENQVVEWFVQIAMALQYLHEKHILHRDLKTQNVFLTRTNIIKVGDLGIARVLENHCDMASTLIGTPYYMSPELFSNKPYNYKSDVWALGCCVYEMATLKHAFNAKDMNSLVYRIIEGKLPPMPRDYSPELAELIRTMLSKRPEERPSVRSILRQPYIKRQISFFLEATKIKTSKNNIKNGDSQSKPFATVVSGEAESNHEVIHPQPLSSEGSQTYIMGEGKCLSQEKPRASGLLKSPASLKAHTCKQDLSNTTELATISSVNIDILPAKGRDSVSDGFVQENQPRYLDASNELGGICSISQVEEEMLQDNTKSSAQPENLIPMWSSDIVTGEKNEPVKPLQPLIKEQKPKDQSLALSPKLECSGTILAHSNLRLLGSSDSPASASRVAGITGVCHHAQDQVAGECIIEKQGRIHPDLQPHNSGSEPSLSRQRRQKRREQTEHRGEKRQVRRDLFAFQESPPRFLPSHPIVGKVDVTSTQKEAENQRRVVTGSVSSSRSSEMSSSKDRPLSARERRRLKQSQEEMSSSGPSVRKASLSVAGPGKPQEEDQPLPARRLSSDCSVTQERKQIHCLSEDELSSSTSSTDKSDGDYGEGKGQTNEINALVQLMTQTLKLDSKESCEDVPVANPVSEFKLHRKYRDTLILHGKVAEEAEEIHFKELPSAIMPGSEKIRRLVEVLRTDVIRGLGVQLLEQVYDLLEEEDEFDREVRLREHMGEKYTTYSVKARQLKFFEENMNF
Sequence of NEK3 (P51956 whole entry): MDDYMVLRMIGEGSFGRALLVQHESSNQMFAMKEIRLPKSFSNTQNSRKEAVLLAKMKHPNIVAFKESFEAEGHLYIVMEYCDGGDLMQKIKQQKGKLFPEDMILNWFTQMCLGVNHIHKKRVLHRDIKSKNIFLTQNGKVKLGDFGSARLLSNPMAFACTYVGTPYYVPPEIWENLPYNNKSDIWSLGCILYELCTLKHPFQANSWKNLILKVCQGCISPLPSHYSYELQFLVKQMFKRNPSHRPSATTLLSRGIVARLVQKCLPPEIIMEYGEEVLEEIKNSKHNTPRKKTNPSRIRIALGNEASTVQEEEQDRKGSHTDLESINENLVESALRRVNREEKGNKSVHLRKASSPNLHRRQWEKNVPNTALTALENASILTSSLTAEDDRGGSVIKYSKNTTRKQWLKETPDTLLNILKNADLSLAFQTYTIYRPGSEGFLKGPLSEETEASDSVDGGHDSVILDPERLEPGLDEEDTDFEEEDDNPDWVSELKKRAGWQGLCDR

`CN(C[C@@H](O)Cc1ccccc1)C(=O)c1cncc(C#Cc2cnn(C(F)F)c2)c1` [Example 2, (S)-5-((1-(difluoromethyl)-1H-pyrazol-4-yl)ethynyl)-N-(2-hydroxy-3-phenylpropyl)-N-methylnicotinamide] showed a remaining activity at 0.1 µM (CSK; CSK) of 98%, a remaining activity at 0.1 µM (ERN1; ERN1) of 100% and a remaining activity at 0.1 µM (CSF1R-autoinhibited; CSF1R-autoinhibited) of 99%. For the same compound, the remaining activity at 0.1 µM (PIK3CD; PIK3CD) was 99%, the remaining activity at 0.1 µM (SGK3; SGK3) was 100% and the remaining activity at 0.1 µM (CSNK1G2; CSNK1G2) was 100%. For the same compound, the remaining activity at 0.1 µM (NEK4; NEK4) was 100%, the remaining activity at 0.1 µM (ERK3; ERK3) was 100% and the remaining activity at 0.1 µM (BRAF; BRAF) was 100%. For the same compound, the remaining activity at 0.1 µM (CDK7; CDK7) was 100%, the remaining activity at 0.1 µM (NEK3; NEK3) was 96% and the remaining activity at 0.1 µM (RAF1; RAF1) was 100%. For the same compound, the remaining activity at 0.1 µM (CDC2L2; CDC2L2) was 100%, the remaining activity at 0.1 µM (MYLK2; MYLK2) was 100% and the remaining activity at 0.1 µM (DCAMKL1; DCAMKL1) was 100%. For the same compound, the remaining activity at 0.1 µM (TBK1; TBK1) was 79%, the remaining activity at 0.1 µM (CAMK2B; CAMK2B) was 100% and the remaining activity at 0.1 µM (EPHA1; EPHA1) was 100%. The remaining activity at 0.1 µM (PRKG2; PRKG2) was 100%, the remaining activity at 0.1 µM (TRKB; TRKB) was 100% and the remaining activity at 0.1 µM (NEK2; NEK2) was 100%. It also gave a remaining activity at 0.1 µM (MARK2; MARK2) of 96%, a remaining activity at 0.1 µM (MST2; MST2) of 100% and a remaining activity at 0.1 µM (LCK; LCK) of 100%. The remaining activity at 0.1 µM (MEK5; MEK5) was 89%, the remaining activity at 0.1 µM (PAK6; PAK6) was 85% and the remaining activity at 0.1 µM (MYLK; MYLK) was 87%. For the same compound, the remaining activity at 0.1 µM (PKAC-alpha; PKAC-alpha) was 94%, the remaining activity at 0.1 µM (PCTK1; PCTK1) was 91% and the remaining activity at 0.1 µM (PLK4; PLK4) was 100%.

`CN(C[C@H](Cc1ccccc1)OP(=O)(O)O)C(=O)c1cncc(C#Cc2cnn(C(F)F)c2)c1` [Example 19, (S)-1-(5-((1-(difluoromethyl)-1H-pyrazol-4-yl)ethynyl)-N-methylnicotinamido)-3-phenylpropan-2-yl dihydrogen phosphate] gave a remaining activity at 0.1 µM (CSK) of 93%, a remaining activity at 0.1 µM (ERN1) of 93% and a remaining activity at 0.1 µM (CSF1R-autoinhibited) of 99%. It also gave a remaining activity at 0.1 µM (PIK3CD) of 85%, a remaining activity at 0.1 µM (SGK3) of 100% and a remaining activity at 0.1 µM (CSNK1G2) of 95%. The remaining activity at 0.1 µM (NEK4) was 100%, the remaining activity at 0.1 µM (ERK3) was 100% and the remaining activity at 0.1 µM (BRAF) was 100%. It also gave a remaining activity at 0.1 µM (CDK7) of 100%, a remaining activity at 0.1 µM (NEK3) of 96% and a remaining activity at 0.1 µM (RAF1) of 100%. The remaining activity at 0.1 µM (CDC2L2) was 100%, the remaining activity at 0.1 µM (MYLK2) was 96% and the remaining activity at 0.1 µM (DCAMKL1) was 100%. The remaining activity at 0.1 µM (TBK1) was 84%, the remaining activity at 0.1 µM (CAMK2B) was 92% and the remaining activity at 0.1 µM (EPHA1) was 100%. The remaining activity at 0.1 µM (PRKG2) was 97%, the remaining activity at 0.1 µM (TRKB) was 94% and the remaining activity at 0.1 µM (NEK2) was 100%. For the same compound, the remaining activity at 0.1 µM (MARK2) was 100%, the remaining activity at 0.1 µM (MST2) was 99% and the remaining activity at 0.1 µM (LCK) was 95%. The remaining activity at 0.1 µM (MEK5) was 87%, the remaining activity at 0.1 µM (PAK6) was 80% and the remaining activity at 0.1 µM (MYLK) was 86%. The remaining activity at 0.1 µM (PKAC-alpha) was 94%, the remaining activity at 0.1 µM (PCTK1) was 84% and the remaining activity at 0.1 µM (PLK4) was 100%.
